From patent publication US20040082757A1, “Echinocandin derivatives, pharmaceutical compositions containing same and use thereof as drugs” (priority 2001, published 2004)
Numbered stars: 1 amine (or outer) side, 2 acyl side, 3 side chain; on linkers, the order of the positions; unused ones are H or OH. Bridge positions count the residues as written; N and C are the ends. Square brackets hold non-standard residues; d marks the D form. Peptide text beside a SMILES is read from it. * marks the point of attachment. ξ: configuration not given here. ξhTyr(βξ-OH,3-OSO3H) = NC(C(=O)O)C(O)Cc1ccc(O)c(OS(=O)(=O)O)c1; ξOrn(4,5-diOH) = O=C(C(CC(O)C(O)N[*:3])N[*:1])[*:2]; X3 = CCCCCOc1ccc(-c2cc(-c3ccc(C(=O)*)cc3)no2)cc1; ξOrn(4ξ-OH) = O=C(C(CC(O)CN[*:3])N[*:1])[*:2]; ξPro(3ξ-OH,4ξ-Me) = CC1CNC(C(=O)O)C1O; X2 = NC(=O)CC(O)C(N[*:1])C(=O)[*:2]; X1 = O=C(C1C(O)C(O)CN1[*:1])[*:2]; ξT = CC(O)C(N)C(=O)O

Tested on: Candida albicans FP 633
Assay: Antimicrobial activity test: antifungal susceptibility by microdilution method (NCCLS M27-A), MIC
Type: cell-based
Conditions: FP633, RPMI 1640, pH 7.0, 35° C., lowest concentration with no visible growth
Experimental: The antifungal susceptibility assays were performed by the microdilution method according to M27-A guidelines recommended by the National Committee for Clinical Laboratory Standards (NCCLS) to determine the MICs of the compounds. RPMI 1640 medium with L-glutamine, without sodium bicarbonate and buffered with 165 mM morpholinepropanesulfonic acid buffer (pH 7.0) was used as a test medium. Inoculum suspension of 10^6 CFU/ml were prepared by a hemocytometric procedure and diluted to obtain an inoculum size of approximately 0.5×10^3 to 2.5×10^3 CFU/ml. Microplates were incubated at 35° C., and readings were taken when good growth in the growth control. The MICs were defined as the lowest concentrations at which no visible growth was observed.

| Structure (SMILES) | MIC [µg/mL] |
| --- | --- |
| CCCCCOc1ccc(-c2cc(-c3ccc(C(=O)NC4CC(O)C(O)NC(=O)C5C(O)C(C)CN5C(=O)C(C(O)CC(N)=O)NC(=O)C(C(O)Cc5ccc(O)c(OS(=O)(=O)[O-])c5)NC(=O)C5C(O)C(O)CN5C(=O)C(C(C)O)NC4=O)cc3)no2)cc1.[Na+] (stereo not drawn) [Object Compound (9)] | < 0.02 |
| CCCCCOc1ccc(-c2cc(-c3ccc(C(=O)NC4CC(O)CNC(=O)C5C(O)C(C)CN5C(=O)C(C(O)CC(N)=O)NC(=O)C(C(O)Cc5ccc(O)c(OS(=O)(=O)[O-])c5)NC(=O)C5CCCN5C(=O)C(C(C)O)NC4=O)cc3)no2)cc1.[Na+] (stereo not drawn) [Object Compound (8)] (X3-[ξOrn(4ξ-OH)]TP[ξhTyr(βξ-OH,3-OSO3H)][X2][ξPro(3ξ-OH,4ξ-Me)]; lactam 1-C; configuration not given here) | < 0.1 |
| CCCCCOc1ccc(-c2cc(-c3ccc(C(=O)NC4CC(O)CNC(=O)C5C(O)C(C)CN5C(=O)C(C(O)CC(N)=O)NC(=O)C(C(O)Cc5ccc(O)c(OS(=O)(=O)[O-])c5)NC(=O)C5CCCN5C(=O)C(CO)NC4=O)cc3)no2)cc1.[Na+] (stereo not drawn) [Object Compound (10)] (X3-[ξOrn(4ξ-OH)]SP[ξhTyr(βξ-OH,3-OSO3H)][X2][ξPro(3ξ-OH,4ξ-Me)]; lactam 1-C; configuration not given here) | < 0.1 |

Tested on: not given
Assay: not given
Conditions: not given

| Structure (SMILES) | melting point |
| --- | --- |
| CC(O)C1NC(=O)C(N)CC(O)CNC(=O)C2C(O)C(C)CN2C(=O)C(C(O)CC(N)=O)NC(=O)C(C(O)Cc2ccc(O)c(OS(=O)(=O)O)c2)NC(=O)C2CCCN2C1=O (stereo not drawn) [Object Compound (1)] (H-[ξOrn(4ξ-OH)]TP[ξhTyr(βξ-OH,3-OSO3H)][X2][ξPro(3ξ-OH,4ξ-Me)]; lactam 1-C; configuration not given here) | 250 to 260 °C (dec.) |
| CC1CN2C(=O)C(C(O)CC(N)=O)NC(=O)C(C(O)Cc3ccc(O)c(OS(=O)(=O)O)c3)NC(=O)C3CCCN3C(=O)C(CO)NC(=O)C(N)CC(O)CNC(=O)C2C1O (stereo not drawn) [Object Compound (3)] (H-[ξOrn(4ξ-OH)]SP[ξhTyr(βξ-OH,3-OSO3H)][X2][ξPro(3ξ-OH,4ξ-Me)]; lactam 1-C; configuration not given here) | 255 to 260 °C (dec.) |
| CC(O)C1NC(=O)C(N)CC(O)C(O)NC(=O)C2C(O)C(C)CN2C(=O)C(C(O)CC(N)=O)NC(=O)C(C(O)Cc2ccc(O)c(OS(=O)(=O)O)c2)NC(=O)C2C(O)C(O)CN2C1=O (stereo not drawn) [Object Compound (2)] (H-[ξOrn(4,5-diOH)][ξT][X1][ξhTyr(βξ-OH,3-OSO3H)][X2][ξPro(3ξ-OH,4ξ-Me)]; lactam 1-C) | 215 to 220 °C (dec.) |
